In patent US4762848A, “1,3-thiazoles and their use as immunomodulators” (Hoechst Aktiengesellschaft, priority 1985, dated 1988):

Experiments:
DTH reaction (SRBC) = assay: Stimulation of the DTH reaction, relative to the compound from Example 7; type: in vivo, NMRI mice; conditions: 1 × i.p. day 0, relative to Example 7 = 100%
Description: Either 10^6 or 10^9 red blood cells from sheep were administered intravenously to each animal in groups of 5 female NMRI mice weighing 18-20 g. Sheep erythrocytes are regarded in immunology as a standard test substance (antigen) for the induction of cellular and humoral immune reactions. In particular, this test provides information about the functioning of the T-cell-dependent component (T-helper cells) of the immune system. The test substance obtained as in exemplary embodiment 7 ([2-(3-carboxy-1-propylthio)-4 -methyl-1,3-thiazol-5-yl]acetic acid) was administered intraperitoneally and perorally, respectively, […], each animal received 2×10^8 sheep erythrocytes injected into the underside of the foot and, 24 hours later, the swelling of the foot was measured. The foot swelling is induced by a skin reaction of the delayed type (delayed type hypersensitivity, DTH) and is, as is known to the expert, a measure of the cellular immune response (Collins, F. M. and Mackaness, G. B., J. Immunol. 101, 830-845, 1968). The results compiled in Table 1 illustraste that there is an increase in the cellular immune response owing to the administration of the subst nce obtained according to the invention, for example after imnunization with 10^6 or 10^9 sheep erythrocytes. An optimum stimulation can be observed in this experimental design on administration of 20-40 mg/kg test substance.
NMRI mice were treated with the substances according to the invention as described in experiment 1.
The DTH reaction was checked as a test to determine the immunostimulation.
It can be seen from the table that the DTH reaction in the animals pretreated with the test substances is more pronounced than in the corresponding control animals.

macrophages [1] = assay: Stimulation of macrophage activity (chemiluminescence), relative to the compound from Example 7; type: in vivo, NMRI mice; conditions: 100 mg/kg, 1 × i.p. day 0; relative to Example 7 = 100%
Description: (§1) This entailed investigation of the effect of the test substance obtained as in exemplary embodiment 7 on the stimulation of peritoneal macrophages in 6-8 week old NMRI mice. Female mice received the test substance in parenteral or oral doses of 25 mg/kg, 50 mg/kg, 100 mg/kg and 200 mg/kg. Buffered saline solution was administered to a control group. The mice were sacrificed three days after the injections, and the peritoneal macrophages of the animals were examined for their state of activation. The secretion of the lysosomal enzymes (β-galactosidase, β-glucuronidase and N-acetyl-β-D-glucosaminidase) was determined as one measure of macrophage activation. […] The level of oxidative metabolism in macrophages is taken as another measure of their state of activation. This activity is measured with the assistance of a biolumate by determination of the chemiluminescence.
(§2) For this purpose, either 3×10^6 macrophages were cultured with 1 ml of TC 199 culture medium in Petri dishes of diameter 30 mm or 10^6 macrophages were cultured with 100 μl of medium in round-bottomed polyethylene tubes (for determination of the chemiluminescence), with 5% CO2 and at 37° C.
(§3) After incubation for one hour, the cultures were washed to remove floating cells. The chemiluminescence (tube culture) was then determined directly, whereas the Petri dishes were incubated for a further 24 hours at 37° C. and then the enzyme and pinocytosis activities in the cultures were determined.
(§4) NMRI mice were treated with the compounds according to the invention as described in experiment 2.
(§5) The macrophage function (chemiluminescence and enzyme activity) was checked as a test to determine the immunostimulation.
(§6) It can be seen from the table that in comparison with macrophages from untreated animals, the chemiluminescence reaction of these cells was also greatly stimulated by all the test substances, and their content of lysosomal enzymes was markedly raised.

macrophages [2] = assay: Stimulation of macrophage activity (exocytosis / lysosomal enzyme activity), relative to the compound from Example 7; type: in vivo, NMRI mice; conditions: 100 mg/kg, 1 × i.p. day 0; relative to Example 7 = 100%
Description: as §1, §2, §3, §4, §5, §6

Candida albicans = conditions: ketoconazole 70 mg/kg (d-1-6, p.o.) alone
Description: Female Balb/c mice (15/group) were infected intravenously with Candida albicans (10^6 cfu/mouse) (day 0). Three groups were formed: group 1 was treated with physiological saline solution, and group 2 received 70 mg/kg ketoconazole orally on 7 consecutive days (days -1-6). Group 3 received 10 intraperitoneal injections of 2 mg/kg test substance on days 3-30 (every 3rd day) in addition to ketoconazole. The number of animals which died was recorded each day, and the time at which 50% of the animals in each group had died (T50) was determined.

SMILES | DTH reaction (SRBC), relative activity (DTH reaction (SRBC); 100 mg/kg) | Macrophage activity: Chemiluminescence, relative activity (macrophages [1]) | Macrophage activity: Exocytosis, relative activity (macrophages [2]) | T50 (time at which 50% of the animals had died) (Candida albicans) | DTH reaction (SRBC), relative activity (DTH reaction (SRBC); 20 mg/kg)
O=C(O)CSc1nc(O)nn1-c1ccccc1 [Example 24, 1-Phenyl-3-hydroxy-1,2,4-triazol-5-ylmercaptoacetic acid] | 115% | 57% | 218% |  | 
CSc1nc(C)c(CC(=O)O)s1 [Example 1, 2-Methylmercapto-4-methyl-1,3-thiazol-5-ylacetic acid] |  | 29% | 124% |  | 
CC(=O)N1CCN(c2ccc(OCC3COC(Cn4ccnc4)(c4ccc(Cl)cc4Cl)O3)cc2)CC1 (centres unmarked) [Ketoconazole, ketoconazole] |  |  |  | 18 days | 
O=C(O)CSc1scnc1C(=O)O [Example 15, 5-Carboxymethylthio-1,3-thiazol-4-ylcarboxylic acid] |  | 49% | 172% |  | 
O=C(O)CCCSc1nnc(SCCCC(=O)O)s1 [Example 27, 2,5-Di(3-carboxy-1-propylthio)-1,3,4-thiadiazole] |  | 22% | 258% |  | 144%
Cc1nc(SCCCC(=O)O)sc1C(=O)O [Example 39] | 210% | 35% | 148% |  | 
O=C(O)CSc1nnc(SCC(=O)O)s1 [Example 25, 2,5-Dicarboxymethylthio-1,3,4-thiadiazole] | 115% | 26% | 186% |  | 
